Test results as given in US12636371B2, “Chemically coupled transporter for low-hydrophobicity bioactive drugs into the central nervous system” (Skybio LLC, priority 2021, dated 2026).

Columns and labels:
D2 dopamine receptor = D2 dopamine receptor (Homo sapiens, UniProt P14416); experiment: D2 receptor agonist assay, cAMP Nomad biosensor, U2OS_cAMPNmd_FP650_D2 cells; format: cell-based; conditions: 24 h, 10 serial 1:3 dilutions from 30 μM, triplicate; read-out: EC50, D2 receptor activation
Method: HEK_cAMPNmd_FP650_D1 and U2OS_cAMPNmd_FP650_D2 cells were seeded at a density of 30.000 and 20.000 cells/well, respectively, in 96-well plates. Cells were maintained in DMEM or DMEM-F12 medium supplemented with 10% FBS during 24 h at 37° C. in a humidified 5% CO2 atmosphere.
Cells were then incubated for 24 h.
To detect Nomad biosensor activation, the assay medium was removed and replaced by […] of DPBS with calcium and magnesium. […] In U2OS_cAMPNmd_FP650_D2 cells, images were acquired using the CellInsight CX7 HCS Platform, and the number of fluorescent vesicles per cell was quantified with the HCS Studio Cell Analysis Software.
The effect of the compounds in the regulation of D1 or D2 receptors' activation was analyzed measuring the CAMP signaling using the Nomad biosensor-based assay.
This same experiment was carried out in the U2OS_cAMPNmd_FP650_D2 cell line (FIG. 10). The effect of the compounds was analyzed quantifying the number of fluorescent vesicles in the cytoplasm of the cells using the HCS Studio Cell Analysis Software.

E. coli DH5α = experiment: Antibiotic activity by disc diffusion assay (MIC); format: cell-based; conditions: disc diffusion, two-fold serial dilutions from 2 mg/ml, LB solid medium, overnight 37° C.
Method: In order to examine the antibiotic activity of the compounds synthesized in Example 1, an assay was performed using E. coli DH5α (Gram(−)), as a sensitive, indicator strain.
The antibacterial activities of test compounds were evaluated using the disc diffusion method (Kavanagh, F. Dilution methods of antibiotic assays in Analytical Microbiology. 1963; Pomares M F, Vincent P A, Farías R N, Salomón R A. Protective action of ppGpp in microcin J25-sensitive strains. J Bacteriol. 2008-190:4328-34). Briefly, filter-paper discs impregnated with 10 μl of two-fold serial dilutions of the test compounds, and were placed onto LB solid medium Petri dishes. Then, aliquots (50 μl) of an E. coli DH5α culture in stationary phase were mixed with 3 ml of top agar (0.7% agar) and overlaid onto the plates. After overnight incubation at 37° C., the plates were examined for different degrees of inhibition. Inhibition degrees produced by the test compound are expressed as Minimum Inhibitory Concentrations (MICs), defined as the lowest concentration of a compound that inhibit visible growth of bacteria. Each test was performed in duplicate vs. the reference compound Doxycycline.

[1] = test system: IL-1β release in Bv2 cells; experiment: IL-1β release in LPS-stimulated microglial cells (ELISA); format: cell-based, murine
Method: To evaluate the effect of Pegasus on LPS-activated microglia, Bv2 cells were pretreated with Pegasus (D9) (200 μM). After 4 h of treatment, cells were stimulated with LPS (10 μg/mL, final concentration) during 24 h. Doxycycline (Doxy) (200 μM) and Dexamethasone (Dexa) (200 μM) were used as a positive control of anti-inflammatory effects. IL-1β cytokine concentration was measured by ELISA assays (Mouse IL-1 beta ELISA Kit, Cat #BMS6002, Invitrogen), according to instructions provided by the manufacturer.

SH-SY5Y cells [2] = experiment: MTT cytotoxicity assay in neuroblastoma SH-SY5Y cells; format: cell-based; conditions: 1, 10 and 20 μM, 24 h
Method: The impact of Pegasus (D9) on cellular viability was studied in SH-SY5Y neuroblastoma cell lines using the colorimetric Thiazolyl Blue Tetrazolium […] (MTT) metabolic activity assay (Mosmann T. Rapid colorimetric assay for cellular growth and survival: application to proliferation and cytotoxicity assays. J Immunol Methods 1983; 65(1-2): 55-63), which reports viable cell number based on mitochondrial activity.
SH-SY5Y cells were seeded in 96-well plates at 15,000 cells/well with 100 μl of DMEM supplemented with 10% Fetal Bovine Serum (FBS) and 1% Antibiotics/Antimycotics, and incubated for 24 h at 37° C. and 5% CO2. Afterwards, cells were treated with a 25 μl aliquot of a D9 solution 5 μM, 50 μM or 100 μM (final concentration in well 1 μM, 10 μM and 20 μM, respectively) and incubated for 24 h. To determine cell viability, the MTT assay was used as previously described by Mosmann (1983). All experiments were performed in sextuplicate, and the relative cell viability (%) was expressed as a percentage relative to the untreated control condition.

SH-SY5Y cells [3] = experiment: CellROX assay of intracellular reactive oxygen species induced by ASf; format: cell-based; conditions: 24 h
Method: In order to characterize the antioxidant properties of D9, its protective action on the AS-induced production of reactive oxygen species (ROS) in a cellular model was assessed. For this, SH-SY5Y cells were treated with fibrils of AS (ASf) (AS incubated 120 h at 37° C. and 600 rpm), and the reactive oxygen species produced were examined using the CellROX® Orange Reagent (Invitrogen), which undergoes oxidation by ROS to form a stable fluorescent compound.
In addition, cells were also treated with doxycycline 10 μM+7 μM ASf (ASf+Doxy) as a positive control, and 10 μM doxycycline alone (Doxy). All conditions were incubated 24 h at 37° C. and 5% CO2. […] Fluorescent images of randomly chosen fields were acquired with identical acquisition parameters using a Zeiss Axio Vert.A1 inverted fluorescence microscope.

D1 dopamine receptor = D1 dopamine receptor (Homo sapiens, UniProt P21728); experiment: D1 receptor agonist assay, cAMP Nomad biosensor, HEK_cAMPNmd_FP650_D1 cells
Chain of D1 dopamine receptor (P21728 whole entry): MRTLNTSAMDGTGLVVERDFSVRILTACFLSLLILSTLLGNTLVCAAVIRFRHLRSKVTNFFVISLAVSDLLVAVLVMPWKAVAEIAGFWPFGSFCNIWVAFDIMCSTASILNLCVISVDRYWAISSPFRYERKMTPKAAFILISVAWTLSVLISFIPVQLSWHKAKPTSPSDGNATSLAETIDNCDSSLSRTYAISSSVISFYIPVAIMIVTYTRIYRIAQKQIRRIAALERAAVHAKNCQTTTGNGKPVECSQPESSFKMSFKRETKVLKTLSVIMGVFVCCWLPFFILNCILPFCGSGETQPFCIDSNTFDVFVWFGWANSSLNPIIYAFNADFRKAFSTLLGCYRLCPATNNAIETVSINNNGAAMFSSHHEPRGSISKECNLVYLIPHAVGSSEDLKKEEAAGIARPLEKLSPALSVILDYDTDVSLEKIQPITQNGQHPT
Method: To detect Nomad biosensor activation, the assay medium was removed and replaced by 100 ml of DPBS with calcium and magnesium. […] In U2OS_cAMPNmd_FP650_D2 cells, images were acquired using the CellInsight CX7 HCS Platform, and the number of fluorescent vesicles per cell was quantified with the HCS Studio Cell Analysis Software.

Chain of D2 dopamine receptor (P14416 whole entry): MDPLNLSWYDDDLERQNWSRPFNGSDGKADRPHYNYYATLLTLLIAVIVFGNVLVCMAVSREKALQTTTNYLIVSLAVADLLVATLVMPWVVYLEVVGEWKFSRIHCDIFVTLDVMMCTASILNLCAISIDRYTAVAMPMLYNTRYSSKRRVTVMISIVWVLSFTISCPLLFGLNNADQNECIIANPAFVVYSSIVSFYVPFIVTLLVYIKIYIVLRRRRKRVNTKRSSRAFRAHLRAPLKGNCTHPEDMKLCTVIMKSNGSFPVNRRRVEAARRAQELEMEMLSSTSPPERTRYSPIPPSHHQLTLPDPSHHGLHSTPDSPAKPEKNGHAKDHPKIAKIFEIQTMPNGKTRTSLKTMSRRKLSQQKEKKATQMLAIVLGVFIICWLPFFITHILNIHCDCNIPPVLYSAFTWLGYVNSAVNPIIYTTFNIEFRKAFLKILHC

EC50 (D2 dopamine receptor): 11.3 µM
EC50 (D1 dopamine receptor): 2800 nM
Structure (SMILES): C[C@H]1c2ccc(NC(=O)CCC(=O)NCCc3ccc(O)c(O)c3)c(O)c2C(=O)C2=C(O)[C@]3(O)C(=O)C(C(N)=O)=C(O)CC3[C@@H](O)C21 (some centres unmarked) [Pegasus]
MIC (E. coli DH5α): no antibiotic activity at the concentrations tested
IL-1β production after LPS stimulation ([1]; 200 μM pretreatment 4 h, then LPS 10 μg/mL 24 h): reduced production of IL-1β
IL-1β release, compound alone ([1]; compound alone, no LPS): did not lead to a significantly increase of IL-1β release
Cytotoxicity (relative cell viability, MTT) (SH-SY5Y cells [2]): no cytotoxic effect
Intracellular ROS induced by ASf in presence of compound (SH-SY5Y cells [3]; 7 μM ASf + 10 μM compound): no increase in ROS production was observed
Intracellular ROS induced by compound alone (SH-SY5Y cells [3]; human, 10 μM): neither the presence of D9 nor doxycycline induced intracellular ROS
